The values below come from patent US11987586B1 (TAKEDA PHARMACEUTICAL COMPANY LIMITED, priority 2022, dated 2024).

The target in one test is T1, human OX2 receptor (Homo sapiens, UniProt O43614).
T1 construct: expressed in transfected cells
T1 sequence (O43614 1-444): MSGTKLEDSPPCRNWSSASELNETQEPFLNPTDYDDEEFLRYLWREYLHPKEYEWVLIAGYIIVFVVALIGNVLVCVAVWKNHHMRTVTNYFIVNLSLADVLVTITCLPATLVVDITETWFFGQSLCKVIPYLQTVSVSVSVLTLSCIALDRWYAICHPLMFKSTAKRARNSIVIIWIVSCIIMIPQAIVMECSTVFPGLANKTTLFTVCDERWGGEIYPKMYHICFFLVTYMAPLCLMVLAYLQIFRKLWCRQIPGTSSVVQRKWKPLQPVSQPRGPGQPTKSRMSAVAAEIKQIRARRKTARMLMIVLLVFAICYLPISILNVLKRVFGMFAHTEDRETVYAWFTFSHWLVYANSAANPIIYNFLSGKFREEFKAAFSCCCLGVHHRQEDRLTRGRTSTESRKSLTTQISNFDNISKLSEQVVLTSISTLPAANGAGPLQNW
The experiment in a line: Measurement of orexin type 2 receptor agonist activity (calcium fluorescence, Fluo-4, FDSS). The format is cell-based. The following applies: 3 uM test compound; CHO cells expressing human OX2 receptor; DMSO = 0%, 10 nM orexin A (human) = 100%. The gist of the method: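 Agonist activity (%) was normalised to the response to 10 nM final human orexin A (100%) and to the DMSO vehicle (0%). The response was measured as the Fluo-4 calcium signal, read kinetically over 1 min 40 s after compound addition to Fluo-4/probenecid-loaded stable CHO-K1 clones expressing human OX2 (aa 1-444).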

Another test concerns cynomolgus monkeys. Put plainly: Evaluation of wake-promoting effects in cynomolgus monkeys (EEG, EMG, locomotor activity). The format is in vivo, cynomolgus monkey. The following applies: Macaca fascicularis, po; 1 mg/kg, p.o., at zeitgeber time 12; 4 hours after administration; male cynomolgus monkeys; read-out: Wakefulness time (% of vehicle treatment) (Mean, n = 2-4). As for the experimental part:
The wake-promoting effects were evaluated by measuring the electroencephalogram (EEG), electromyogram (EMG) and locomotor activity in cynomolgus monkeys. Under isoflurane anesthesia (0.5-5%, Pfizer Japan Inc., Tokyo, Japan), male cynomolgus monkeys (2-3 years old, Hamri Co., Ltd., Ibaraki, Japan) were surgically implanted with radio-telemetry transmitters (L03-F3, Data Sciences International Inc., MN, USA). The two EEG electrodes were stereotaxically positioned at the parietal area and secured to the cranium with stainless-steel screws in contact with the dura. Bilateral EMG electrodes were implanted into the back cervical muscles. After at least a 1-month recovery period in home cages, the monkeys were habituated to the recording chamber (an acrylic cage 60W×55D×75H (cm)) located in a soundproof and electrically shielded room by the time animals sleep sufficiently in the experimental room. Cortical EEG, EMG and locomotor activity were recorded using the telemetry system (PhysioTel Digital telemetry platform, Data Sciences International Inc.). The signals were semi-automatically scored in 20-second epochs by a sleep scoring system (SleepSign, Kissei Comtec Co., Ltd., Nagano, Japan).
Test compound (1 or 3 mg/kg) suspended in 0.5% methylcellulose aqueous solution or vehicle (i.e., 0.5% methylcellulose aqueous solution) was administered orally (p.o.) to monkeys at zeitgeber time 12 in a volume of 5 mL/kg body weight with a pretest-posttest design (n=2-4), and then EEG, EMG and locomotor activity were recorded for 4 hours after administration. The time spent in wakefulness for 4 hours after administration (% of vehicle treatment) was calculated by using SleepSign.

As to `CS(=O)(=O)N[C@@H]1CN2C(=O)N(c3noc4cccc(-c5c(F)cc(F)cc5F)c34)C[C@@H]2C1(F)F` [Example 71, N-{(6R,7aR)-7,7-Difluoro-3-oxo-2-[4-(2,4,6-trifluorophenyl)-1,2-benzoxazol-3-yl]hexahydro-1H-pyrrolo[1,2-c]imidazol-6-yl}methanesulfonamide], the “OX2R agonist activity (3 uM, %)” value at human OX2 receptor was 97%. Also, in the test on cynomolgus monkeys, the response vs control in vivo at 1 mg/kg turned out to be 703%.
With `CS(=O)(=O)N[C@@H]1Cn2c(cn(-c3noc4ccc(F)c(-c5c(F)cc(F)cc5F)c34)c2=O)C1(F)F` [Example 77, N-{(6R)-7,7-Difluoro-2-[5-fluoro-4-(2,4,6-trifluorophenyl)-1,2-benzoxazol-3-yl]-3-oxo-2,5,6,7-tetrahydro-3H-pyrrolo[1,2-c]imidazol-6-yl}methanesulfonamide], the “OX2R agonist activity (3 uM, %)” value at human OX2 receptor is 100%. Besides, in the test on cynomolgus monkeys, the response vs control in vivo at 1 mg/kg was found to be 645%.
As for `CS(=O)(=O)N[C@@H]1Cn2c(cn(-c3noc4cc(F)c(F)c(-c5c(F)cccc5F)c34)c2=O)C1(F)F` [Example 142, N-{(6R)-2-[4-(2,6-difluorophenyl)-5,6-difluoro-1,2-benzoxazol-3-yl]-7,7-difluoro-3-oxo-2,5,6,7-tetrahydro-3H-pyrrolo[1,2-c]imidazol-6-yl}methanesulfonamide], at human OX2 receptor, the “OX2R agonist activity (3 uM, %)” value is on record as 99%. Besides, the response vs control in vivo at 1 mg/kg in the test on cynomolgus monkeys worked out at 690%.
On to `CS(=O)(=O)N[C@@H]1CN2C(=O)N(c3noc4cc(F)cc(-c5c(F)cc(F)cc5F)c34)C[C@@H]2C1(F)F` [Example 149, N-{(6R,7aR)-7,7-Difluoro-2-[6-fluoro-4-(2,4,6-trifluorophenyl)-1,2-benzoxazol-3-yl]-3-oxohexahydro-1H-pyrrolo[1,2-c]imidazol-6-yl}methanesulfonamide], for which the “OX2R agonist activity (3 uM, %)” value at human OX2 receptor was 95%. Further, the response vs control in vivo at 1 mg/kg in the test with cynomolgus monkeys is 731%.
Turning to `CS(=O)(=O)N[C@@H]1CN2C(=O)N(c3noc4cccc(-c5c(F)cc(F)cc5F)c34)CC[C@@H]2C1(F)F` [Example 213, N-{(4aR,6R)-5,5-Difluoro-1-oxo-2-[4-(2,4,6-trifluorophenyl)-1,2-benzoxazol-3-yl]octahydropyrrolo[1,2-c]pyrimidin-6-yl}methanesulfonamide], at human OX2 receptor, the “OX2R agonist activity (3 uM, %)” value is 104%. The response vs control in vivo at 1 mg/kg in the test on cynomolgus monkeys is 447%.
The matching figures for `CS(=O)(=O)N[C@@H]1CN2C(=O)N(c3noc4cc(F)c(F)c(-c5c(F)cc(F)cc5F)c34)CC[C@@H]2C1(F)F` [Example 243, N-{(4aR,6R)-2-[5,6-difluoro-4-(2,4,6-trifluorophenyl)-1,2-benzoxazol-3-yl]-5,5-difluoro-1-oxooctahydropyrrolo[1,2-c]pyrimidin-6-yl}methanesulfonamide]: 109% and 618%.
On to `CS(=O)(=O)N[C@@H]1CN2C(=O)N(c3noc4ccc(F)c(-c5c(F)cccc5F)c34)CC[C@@H]2C1(F)F` [Example 265, N-{(4aR,6R)-2-[4-(2,6-difluorophenyl)-5-fluoro-1,2-benzoxazol-3-yl]-5,5-difluoro-1-oxooctahydropyrrolo[1,2-c]pyrimidin-6-yl}methanesulfonamide], for which, at human OX2 receptor, the “OX2R agonist activity (3 uM, %)” value came out at 107%. For the same molecule, the response vs control in vivo at 1 mg/kg in the test on cynomolgus monkeys was determined as 472%.
The matching figures for `CCS(=O)(=O)N[C@@H]1Cn2c(cn(-c3noc4cc(F)cc(-c5c(F)cccc5F)c34)c2=O)C1(F)F` [Example 282, N-{(6R)-2-[4-(2,6-difluorophenyl)-6-fluoro-1,2-benzoxazol-3-yl]-7,7-difluoro-3-oxo-2,5,6,7-tetrahydro-3H-pyrrolo[1,2-c]imidazol-6-yl}ethanesulfonamide]: 105% and 418%.
